Laboratory results: patent US20260200976A1, “PEPTIDE HAVING ACTIVITY OF IMPROVING STATE OF SKIN, AND USE THEREOF” (CAREGEN CO., LTD., priority 2022, published 2026)

Columns and labels:
sirtuin-1 (SIRT-1) = test: Expression of skin barrier factor SIRT-1, RT-PCR in HaCaT cells; format: cell-based; settings: 50 μM or 1000 μM peptide, 24 hours, FIG. 4 and FIG. 5
Experimental: (§1) In this example, the aim was to confirm the effect of the peptides according to an example on strengthening the skin barrier, by evaluating the expression levels of sirtuin-1 (SIRT-1) or aquaporin-3 (AQP3).
(§2) Specifically, HaCaT cells were seeded in a 6-well plate at a density of 3×10^5 cells/well and cultured for 24 hours. Next, the cells were washed once with serum-free DMEM media, and 50 μM or 1000 μM of a peptide consisting of an amino acid sequence of SEQ ID NO: 1 was dispensed into 1 mL of the serum-free media, and cultured in a CO2 incubator at 37° C. for 24 hours. Next, the culture was washed twice with PBS, and RNA was isolated from the culture using easy blue (iNtRON, Cat. No.: 17061, Korea). Next, using an RT kit (Enzynomics, Cat. NO.: RT200, Korea), the isolated RNA was reverse transcribed to synthesize the respective cDNA. Next, using the synthesized 1 μg cDNA, primers for SIRT-1 or AQP3, and a PCR kit (Enzynomics, Cat. No.: P581T, Korea), polymerase chain reaction (PCR) was performed. Meanwhile, in this example, an untreated group was used as a control group, and a group to which EGF was added was used as a positive control group, the nucleotide sequences of the primers used in this example are shown in Table 3 below.

collagen type 1 (Col1a1) = test: Expression of extracellular matrix component Col1a1, RT-PCR in NIH3T3 cells; format: cell-based, mouse; settings: 10 μM or 50 μM peptide, 24 hours, FIG. 2 and FIG. 3
Experimental: (§3) In this example, the aim was to confirm the effect of the peptide according to an example on improving endogenous skin aging, including improvement of wrinkles and enhancement of elasticity, etc., by evaluating the expression levels of collagen type 1 (Col1a1), fibronectin, and elastin, which are known components of the dermis.
(§4) Specifically, NIH3T3 cells were seeded in a 6-well plate at a density of 3×10^5 cells/well and cultured for 24 hours. Next, the cells were washed once with serum-free DMEM media, and 10 μM or 50 μM of a peptide consisting of an amino acid sequence of SEQ ID NO: 1 was dispensed into 1 mL of the serum-free media, and cultured in a CO2 incubator at 37° C. for 24 hours. Next, the culture was washed twice with PBS, and RNA was isolated from the culture using easy blue (iNtRON, Cat. No.: 17061, Korea). Next, using an RT kit (Enzynomics, Cat. NO.: RT200, Korea), the isolated RNA was reverse transcribed to synthesize the respective cDNA. Next, using the synthesized 1 μg cDNA, primers for Col1a1, fibronectin, or elastin, and a PCR kit (Enzynomics, Cat. No.: P581T, Korea), polymerase chain reaction (PCR) was performed. Meanwhile, in this example, an untreated group was used as a control group, and a group to which TGF-β1 was added was used as a positive control group, the nucleotide sequences of the primers used in this example are shown in Table 2 below.

NIH3T3 cells [1] = test: Reduction of reactive oxygen species increased by ultraviolet rays, DCF-DA flow cytometry, NIH3T3; format: cell-based, mouse; settings: 50 μM or 1000 μM peptide, 6 J/cm2 ultraviolet rays, 24 hours, FL1 fluorescence, FIG. 8
Experimental: (§5) In this example, the aim was to confirm the effect of the peptide according to an embodiment on the antioxidant effect in damaged skin, by evaluating the change in the level of reactive oxygen species in skin cells increased by ultraviolet irradiation.
(§6) Specifically, NIH3T3 cells or HaCaT cells were seeded in a 6-well plate at a density of 5×10^5 cells/well and cultured for 24 hours. Next, the cells were washed once with serum-free DMEM media, and 50 μM or 1000 μM of a peptide consisting of an amino acid sequence of SEQ ID NO: 1 was dispensed into 1 mL of the serum-free media, and cultured in a CO2 incubator at 37° C. for […]. Next, the above culture was transferred to an e-tube, mixed with 1 ml of PBS, and dispensed into a well plate. Next, using a UV irradiator (VILBER LOURMAT, Cat No.: 3102-BSU, France), 6 J/cm2 ultraviolet rays were irradiated to NIH3T3 cells, and 15 J/cm2 ultraviolet rays were irradiated to HaCaT cells. Next, the PBS in the well plate was removed, 900 μL of the culture medium in which the peptides were dispensed was added, and the plate was cultured in a CO2 incubator at 37° C. for 24 hours. […] After washing the centrifuged cells with PBS, FL1 fluorescence values were measured through flow cytometry (FACS, BD, USA). […]

aquaporin-3 (AQP3) = test: Expression of skin barrier factor AQP3, RT-PCR in HaCaT cells; format: cell-based; settings: 50 μM or 1000 μM peptide, 24 hours, FIG. 4 and FIG. 5
Experimental: as §1, §2

HaCaT cells [2] = test: Reduction of reactive oxygen species increased by ultraviolet rays, DCF-DA flow cytometry, HaCaT; format: cell-based; settings: 50 μM or 1000 μM peptide, 15 J/cm2 ultraviolet rays, 24 hours, FL1 fluorescence, FIG. 9
Experimental: as §5, §6

NIH3T3 cells [3] = test: Proliferation of skin cells, MTT survival rate; format: cell-based, mouse; settings: 50 μM or 100 μM peptide, 72 hours, FIG. 1
Experimental: In this example, the aim was to confirm the effect of a peptide according to an example on proliferation of skin cells, by evaluating changes in survival rate of NIH3T3 cells, which are mouse fibroblasts.
Specifically, NIH3T3 cells were seeded in a […] at a density of 1×10^4 cells/well and cultured for 24 hours. Next, the cells were washed once with serum-free DMEM media, and 50 μM or 100 μM of a peptide consisting of an amino acid sequence of SEQ ID NO: 1 was dispensed into 200 μL of the serum-free media, and cultured in a CO2 incubator at 37° C. for 72 hours. Next, the culture was washed twice with PBS, and MTT solution was dispensed into each well at a concentration of 0.5 mg/ml. Next, it was shaded from light and cultured in a CO2 incubator at 37° C. for 4 hours, and the absorbance at 540 nm was measured using a microplate reader (Molecular Devices, USA).

fibronectin = test: Expression of extracellular matrix component fibronectin, RT-PCR in NIH3T3 cells; format: cell-based, mouse; settings: 10 μM or 50 μM peptide, 24 hours, FIG. 2 and FIG. 3
Experimental: as §3, §4

elastin = test: Expression of extracellular matrix component elastin, RT-PCR in NIH3T3 cells; format: cell-based, mouse; settings: 10 μM or 50 μM peptide, 24 hours, FIG. 2 and FIG. 3
Experimental: as §3, §4

NIH3T3 cells [4] = test: Inhibition of apoptosis induced by ultraviolet rays, MTT survival rate, NIH3T3; format: cell-based, mouse; settings: 50 μM or 100 μM peptide, 6 J/cm2 ultraviolet rays, FIG. 6
Experimental: (§7) In this example, the aim was to confirm the effect of the peptide according to an example on the inhibition of apoptosis or cell recovery of skin cells induced by ultraviolet rays, by evaluating the change in survival rate of skin cells whose apoptosis was induced by ultraviolet irradiation.
(§8) Specifically, NIH3T3 cells or HaCaT cells were seeded in a 96-well plate at a density of 1×10^4 cells/well and cultured for 24 hours. Next, the cells were washed once with serum-free DMEM media, and 50 μM or 100 μM of the peptide consisting of an amino acid sequence of SEQ ID NO: 1 was dispensed into 200 μL of the medium. The culture medium dispensed with the peptide was cultured in a CO2 incubator at 37° C. for 1 hour, transferred to an e-tube, mixed with 100 ul of PBS, and dispensed into a well plate. Next, using a UV irradiator (VILBER LOURMAT, Cat No.: 3102-BSU, France), 6 J/cm2 ultraviolet rays were irradiated to NIH3T3 cells, and […] ultraviolet rays were irradiated to HaCaT cells. Next, PBS in the well plate was removed, MTT (Sigma, Cat. No.: M2003, USA) solution was dispensed into each well at 0.5 mg/ml, and cultured in a CO2 incubator at 37° C. for […]. Next, the absorbance of the culture was measured at 540 nm using a microplate reader (Molecular Devices, USA). […]

HaCaT cells [5] = test: Inhibition of apoptosis induced by ultraviolet rays, MTT survival rate, HaCaT; format: cell-based; settings: 50 μM or 100 μM peptide, 15 m J/cm2 ultraviolet rays, FIG. 7
Experimental: as §7, §8

EVVDI [SEQ ID NO: 1]
expression of SIRT-1 (sirtuin-1 (SIRT-1)): increased | expression of Col1a1 (collagen type 1 (Col1a1)): increased | level of reactive oxygen species in fibroblasts increased by ultraviolet irradiation (NIH3T3 cells [1]): reduced | expression of AQP3 (aquaporin-3 (AQP3)): increased | level of reactive oxygen species in keratinocytes increased by ultraviolet irradiation (HaCaT cells [2]): reduced | proliferation of fibroblasts (cell survival rate) (NIH3T3 cells [3]): promoted | expression of fibronectin (fibronectin): increased | expression of elastin (elastin): increased | cell survival rate of fibroblasts reduced by ultraviolet irradiation (NIH3T3 cells [4]): restored | cell survival rate of keratinocytes reduced by ultraviolet irradiation (HaCaT cells [5]): restored
